From patent publication US20190022072A1, “USAGE OF ACETAZOLAMIDE FOR TREATING ICH, PARTICULARLY HYPERGLYCEMIC ICH” (priority 2017, published 2019)

Key:
AQP4 = test: expression of AQP4 in brain tissues of normoglycemic and hyperglycemic rats with experimental ICH, immunohistochemistry; assay type: in vivo, Wistar rats
Procedure: (§1) In the hyperglycemia experiment, six Wistar rats are applied. Regarding each rat, hyperglycemia is induced by a single intraperitoneal injection of a buffer solution of streptozotocin (STZ) in 31 mM citrate and 39 mM sodium phosphate at 70 mg/kg body weight after an overnight fast. On the other hand, control rats receive an intraperitoneal injection of buffer vehicle. On day 3 after STZ treatment, whole blood of the rats is obtained and the glucose levels thereof are measured. Blood glucose level of ≥250 mg/dL was chosen as hyperglycemia, whereas rats were used as normoglycemia, defined as a blood glucose level of <100 mg/dL.
(§2) Then in the intracerebral hemorrhage experiment, each hyperglycemic or normoglycemic rat is anesthetized with an intraperitoneal injection of 50 mg/kg pentobarbital. Next, a needle is introduced through a burr hole into the striatum, and the needle is then removed, with the burr hole sealed with bone wax and the wound sutured. After a period of time, AZA is administered orally or by gastric lavage at 5 mg/kg in normal saline. Blood of the rats are sampled on days 1, 4, and 7 post-induction of ICH for testing the glucose level thereof.
Experiment 3: determining the expression of AQP4 in normoglycemic and hyperglycemic rats.
The differential expressions of AQP4 in normoglycemic and hyperglycemic rats are detected by AQP4 autoantibody by Immunohistochemistry. The effect of AZA influencing the expression of AQP4 are tested.

experimental ICH = test: hemorrhagic areas of brains of normoglycemic and hyperglycemic rats with experimental ICH treated with AZA; assay type: in vivo, Wistar rats
Procedure: as §1, §2
Experiment 2: comparing the hemorrhagic areas of normoglycemic and hyperglycemic rats treated with AZA.

[1] = hyperglycemic rats treated with AZA, day 1
[2] = hyperglycemic rats treated with AZA, day 4
[3] = hyperglycemic rats treated with AZA, day 7
[4] = normoglycemic rats treated with AZA, day 1
[5] = normoglycemic rats treated with AZA, day 4
[6] = normoglycemic rats treated with AZA, day 7

CC(=O)Nc1nnc(S(N)(=O)=O)s1 [AZA, acetazolamide]
AQP4 expression, change in words (AQP4; hyperglycemic rats administered with AZA (5 mg/kg)): significant decrease | the expression of AQP4 (AQP4; [1]): 15.67 ± 6.59 | the expression of AQP4 (AQP4; [2]): 8.65 ± 4.53% | the expression of AQP4 (AQP4; [3]): 2.33 ± 3.83 | the expression of AQP4 (AQP4; [4]): 12.19 ± 2.75 | the expression of AQP4 (AQP4; [5]): 18.56 ± 5.67 ^ | the expression of AQP4 (AQP4; [6]): 37.84 ± 6.53 | hemorrhagic areas, change in words (experimental ICH; both normoglycemic and hyperglycemic rats treated with AZA): significant decrease | hemorrhagic areas square measure of rats (%) (experimental ICH; [1]): 2.08 ± 0.02% | hemorrhagic areas square measure of rats (%) (experimental ICH; [2]): 0.91 ± 0.13% | hemorrhagic areas square measure of rats (%) (experimental ICH; [3]): 0.38 ± 0.10% | hemorrhagic areas square measure of rats (%) (experimental ICH; [4]): 6.00 ± 0.05% | hemorrhagic areas square measure of rats (%) (experimental ICH; [5]): 2.61 ± 0.17% | hemorrhagic areas square measure of rats (%) (experimental ICH; [6]): 1.37 ± 0.05%
